This note sets out measurements from patent publication US20160220567A1, “COMPOSITION FOR TREATING OR PREVENTING BONE DISEASES, COMPRISING HALOFUGINONE AS ACTIVE INGREDIENT” (THE CATHOLIC UNIVERSITY OF KOREA INDUSTRY-ACADEMIC …, priority 2013, published 2016).

In one assay the test system is IL-17 and IL-6. Nature of the assay: Inflammatory cytokines IL-17 and IL-6 in joint tissue staining / sera ELISA of CIA mice. The format is in vivo, mouse. The note with it: FIG. 1C. How it is done:
(§1) For the construction of a mouse model with collagen-induced arthritis (hereinafter, referred to as “CIA”), a 6-week old male DBA/1J mouse was subjected to primary immunization by intradermal injection after mixing the bovine type II collagen (hereinafter, referred to as “CII”) and complete Freud's adjuvant (CFA) in an amount of 100 μL, respectively. After a week thereafter, halofuginone was injected intraperitoneally at 3 day intervals at a concentration of 100 μg/kg and 500 μg/kg, respectively (9 weeks).
In general terms: In an ELISA, binding on a coated surface is turned into a signal by an enzyme label.

Assay [1] deals with osteoclasts (TRAP positive cells) in the joint. Briefly: Osteoclast differentiation potential in the joint of arthritis animal model by TRAP staining. The format is in vivo, mouse. Conditions: joint of CIA mice, FIG. 4A. How it is done: as §1
To examine the osteoclast differentiation potential in the joint of the animal model with arthritis by TRAP staining, the marker enzyme of osteoclasts were subjected to TRAP staining using the leukocyte acid phosphatase Kit (387-A, Sigma, St. Louis, Mo., USA) according to the manufacturer's manual. The cells having at least 5 nuclei among the TRAP positive cells (red color) were regarded as osteoclasts.

The next assay concerns Th17 cells. Nature of the assay: mRNA expression of IL-17, CCR6, SOCS3 and Foxp3 in Th17 cells by real-time PCR. Format: cell-based, mouse. The note with it: FIG. 3B. How it is done: The real-time PCR was performed using the LightCycler 2.0 System Instrument and the reaction compounds were prepared by mixing 1 μL of each cDNA, 10 μL of premix Ex Taq as an enzyme for the initiation, and each primer pair to a final volume of 20 μL using distilled water. The reaction conditions were: reacted at 95° C. for 10 minutes, followed by a total of 50 cycles consisting of denaturation at 95° C. for 10 seconds, annealing at 60° C. for 5 seconds, and extension at 72° C. for 10 seconds. The values of cycle threshold (Ct) were analyzed and the amount of mRNA expression for each target was indicated in terms of the amount of beta-actin mRNA expression and the relative quantity. The primers used are shown below.
Splenocytes were obtained from mice, that is, the spleens removed from the mice and the spleen tissues were thinly ground using a tearing slide and the red blood cells (RBC) in the splenocytes were removed with the RBC lysis solution. Then, PBS buffer solution was added thereto, and the mixture was centrifuged, and washed to obtain splenocytes. Then, the singe cells (1 ? 10^6) isolated from the spleens were aliquoted into a 24-well plate coated with anti-CD3 antibody (1 μg/mL) were treated under the condition of capable of stimulating Th17 cells (anti-CD28 antibody (1 μg/mL), TGF-β (2 ng/ mL), IL-6 (20 ng/mL), anti-IL-4 (10 μg/mL), and anti-IFN-γ (10 μg/mL); the condition of capable of stimulating Th1 cells (anti-CD28 antibody (1 μg/mL), IL-12 (10 ng/mL), and anti-IL-4 (10 μg/mL)); or the condition of capable of stimulating Th2 cells (anti-CD28 antibody (1 μg/mL), IL-4 (10 ng/mL), and anti-IFN-γ (10 μg/mL)); and the cells were cultured for 3 days, and in particular, cultured after treating the cells with halofuginone at respective concentration and cultured. Specifically, DMSO treatment was used for the control group.
The expression of IL-17, CCR6, SOCS3, and Foxp3 in the cells under the condition of Example <2-2> was analyzed by real-time PCR as described in Example <1-6>. The primers used are shown below.
A general note: Quantitative PCR measures a nucleic acid by following its amplification.

In the next assay the test system is ERK of Th17 cells. Nature of the assay: pERK expression in Th17 cells by western blotting. The format is cell-based, mouse. The note with it: Th17 cells stimulated with halofuginone, FIG. 3C. How it is done: To examine whether halofuginone activates the ERK of Th17 cells, western blotting was performed for pERK in the cells under the condition of Example <2-1>. To this end, the Th17 cells were lysed in a lysis buffer [20 mM Tris-HCl (pH 7.5), 150 mM NaCl, 1% Triton X-100, 1 mM EDTA, 1 mM EGTA, 1 mM phenylmethylsulfonyl fluoride, 10 mM β-glycerophosphate, 1 mM NaF, 1 mM Na3VO4, and 19 Protease Inhibitow Cocktail™ (Roche Molecular Biochemicals, Indianapolis, Ind., USA)]. From the lysate, an equal amount of the protein (about 20 μg) was separated by sodium dodecyl sulfate-polyacrylamide gel electrophoresis and then transferred to a nitrocellulose membrane. Then, the blots were probed with NFATc1 and phospho-Smad2/3 (all from Santa Cruz Biotechnology), Stat3, Stat5, ERK, phospho-Stat3, phospho-stat5, and phospho-ERK (all from Cell Signaling Technology), and β-actin (Sigma) antibodies, and confirmed by ECL (Amersham, Del., USA).

Assay [2] relates to osteoclasts from murine bone marrow cells. Nature of the assay: Bone resorption potential by osteoclasts on Dentine slice, murine bone marrow cells. Format: cell-based, mouse. The note with it: M-CSF, RANKL, 21 days, FIG. 5B. How it is done: To examine the effect of halofuginone on the bone resorption potential by osteoclasts, murine bone marrow cells were cultured in Dentine slice, and the cultured cells were stimulated with M-CSF, RANKL, and halofuginone, and cultured for 21 additional days. Then, the cells were removed using 5% sodium hypochlorite solution, subjected to Hematoxylin staining, and the bone resorption lacunae formed by the bone resorption of osteoclasts were photographed.

Structures are written as SMILES.

As to `O=C(C[C@H]1NCCC[C@@H]1O)Cn1cnc2cc(Br)c(Cl)cc2c1=O` (racemic) [halofuginone], in the assay with IL-17 and IL-6, the “level of inflammatory cytokine IL-6” value is given as “significantly decrease” and the “level of inflammatory cytokine IL-17” value was “significantly decrease”. For the same molecule, the “number of TRAP positive cells” value in assay [1] was “decreased”. Also, in the assay with Th17 cells, the “expression of CCR6” value was “inhibits”, the “expression of Foxp3” value is “increasing”, the “expression of IL-17” value was “inhibits” and the “expression of SOCS” value is recorded as “increasing”. Further, in the assay on ERK of Th17 cells, the “expression of pERK” value is given as “increased”. The bone resorption potential entry in assay [2] is “significantly reduced”.
